Each compound was assayed on GBM8 cells (human glioblastoma neurosphere cell culture) (assay: GBM8 viability assay (Cell Titer Glo luminescence, 3 days)). Conditions: 72 h, 3 days incubation.
Type: cell-based
Procedure: Example 283: GBM4 and GBM8 Viability Assay
Cell culture medium was prepared from a NSA proliferation kit (Neurocult) and NeuroCult supplements (Stemcell Tech Cat. #05751) and treated with 20 μL of 10 μg/mL rh EGF, 10 μL of 10 μg/mL rh bFGF and 10 μL of 0.2% Heparin. In this medium, human glioblastoma cells were cultured in ultra-low attachment tissue culture flasks until 1×10^6 cells ml was achieved (GBM4 and GBM8 are distinct neurosphere cell cultures derived from these human patient tissues). GBM4 and GBM8 cells were dissociated and 10 mL of media containing 4000 human glioblastoma cells per 90 uL were transferred to an ultra-low binding 96-well plate and incubated at 37° C. overnight. On the following day, 10 μL of a 1% DMSO solution of test compound in assay medium was added to wells containing the cell suspension and the mixture incubated at 37° C. for 3 days. At this time, the plate was removed from the incubator and allowed to reach room temperature. After about 30 minutes, 50 μL of Cell Titer Glo solution was added to each well and the plate shaken for 1 minute at low speed. After 10 minutes luminescence was recorded using a Tecan Safire2 reader.
Reduction in luminescence compared to DMSO only control wells was used to determine the percentage inhibition of cell growth. IC50s were calculated using the % inhibition of luminescence for serial dilutions of compounds fitted to a 4-parameter fit within the Prism (San Diego) curve fitting program.

Row | Compound | IC50 [µM]
1 | Cc1cc(NCC(C)O)nc(NC(=O)Nc2ccc(Cl)c(Cl)c2)n1 (stereo not drawn) [Compound 10, 1-{2-[3-(3,4-Dichlorophenyl)ureido]-6-methyl-4-pyrimidinylamino}-2-propanol] | < 1
2 | Cc1cc(NCCN(C)C)nc(NC(=O)Nc2ccc(Cl)c(Cl)c2)n1 [Compound 11] | < 1
3 | Cc1cc(NCCO)nc(NC(=O)Nc2ccc(Cl)c(Cl)c2)n1 [Compound 12] | < 1
4 | Cc1cc(NCCCCO)nc(NC(=O)Nc2ccc(Cl)c(Cl)c2)n1 [Compound 13] | < 1
5 | Cc1cc(NCCN)nc(NC(=O)Nc2ccc(Cl)c(Cl)c2)n1 [Compound 14] | < 1
6 | Cc1cc(NCCCCN)nc(NC(=O)Nc2ccc(Cl)c(Cl)c2)n1 [Compound 15] | < 1
7 | Cc1cc(NCC2CCCN(C)C2)nc(NC(=O)Nc2ccc(Cl)c(Cl)c2)n1 (stereo not drawn) [Compound 16] | < 1
8 | Cc1cc(NCCCCN(C)C)nc(NC(=O)Nc2ccc(Cl)c(Cl)c2)n1 [Compound 17] | < 1
9 | Cc1cc(NCCOCCO)nc(NC(=O)Nc2ccc(Cl)c(Cl)c2)n1 [Compound 18] | < 1
10 | Cc1cc(NCCC(N)=O)nc(NC(=O)Nc2ccc(Cl)c(Cl)c2)n1 [Compound 19] | 1 to 10
11 | COC(=O)CCNc1cc(C)nc(NC(=O)Nc2ccc(Cl)c(Cl)c2)n1 [Compound 20] | < 1
12 | Cc1cc(NCCCc2ccccn2)nc(NC(=O)Nc2ccc(Cl)c(Cl)c2)n1 [Compound 21] | 1 to 10
13 | CNCCCCNc1cc(C)nc(NC(=O)Nc2ccc(Cl)c(Cl)c2)n1 [Compound 26, 1-(3,4-dichlorophenyl)-3-(4-methyl-6-((4-(methylamino)butyl)amino)pyrimidin-2-yl)urea] | < 1
14 | Cc1cc(NCC2CCCNC2)nc(NC(=O)Nc2ccc(Cl)c(Cl)c2)n1 (stereo not drawn) [Compound 27] | < 1
15 | CNCCNc1cc(C)nc(NC(=O)Nc2ccc(Cl)c(Cl)c2)n1 [Compound 28] | < 1
16 | CNCCCNc1cc(C)nc(NC(=O)Nc2ccc(Cl)c(Cl)c2)n1 [Compound 29] | < 1

Row | Compound | IC50 [µM]
17 | Cc1cc(NCCCO)nc(N2CCN(c3ccc(Cl)c(Cl)c3)C2=O)n1 [Compound 35, 3-(3,4-dichlorophenyl)-1-[4-(3-hydroxypropylamino)-6-methyl-2-pyrimidinyl]-2-imidazolidinone] | < 1
18 | Cc1cc(NCCCN(C)C)nc(N2CCN(c3ccc(Cl)c(Cl)c3)C2=O)n1 [Compound 36, 3-(3,4-dichlorophenyl)-1-{4-[3-(dimethylamino)propylamino]-6-methyl-2-pyrimidinyl}-2-imidazolidinone] | < 1
19 | Cc1cc(NCCCN(C)C)nc(NC(=O)Nc2ccc(Cl)cc2)n1 [Compound 44, 1-{2-[3-(4-chloro-phenyl)ureido]-6-methyl-4-pyrimidin-ylamino}-3-(dimethylamino)propane] | < 1
20 | Cc1cc(NCCCN(C)C)nc(NC(=O)Nc2cccc(Cl)c2)n1 [Compound 45, 1-{2-[3-(3-Chloro-phenyl)ureido]-6-methyl-4-pyrimidin-ylamino}-3-(dimethyl-amino)propane] | < 1
21 | Cc1cc(NCCCN(C)C)nc(NC(=O)Nc2ccc(Cl)c(C(F)(F)F)c2)n1 [Compound 47, 1-(2-{3-[4-chloro-3-(trifluoromethyl)phenyl]ureido}-6-methyl-4-pyrimidinylamino)-3-(dimethylamino)propane] | < 1
22 | Cc1cc(NCCN(C)C)nc(NC(=O)Nc2ccc(Cl)c(C(F)(F)F)c2)n1 [Compound 48] | 1 to 10
23 | Cc1cc(NCCOCCO)nc(NC(=O)Nc2ccc(Cl)c(C(F)(F)F)c2)n1 [Compound 51] | < 1
24 | Cc1cc(NCC(C)O)nc(NC(=O)Nc2ccc(Cl)c(C(F)(F)F)c2)n1 (stereo not drawn) [Compound 54] | < 1
25 | Cc1cc(NCCCCN(C)C)nc(NC(=O)Nc2ccc(Cl)c(C(F)(F)F)c2)n1 [Compound 56] | 1 to 10
26 | Cc1cc(NCCCc2cnc[nH]2)nc(NC(=O)Nc2ccc(Cl)c(C(F)(F)F)c2)n1 [Compound 59] | < 1
27 | Cc1cc(NCCC(N)=O)nc(NC(=O)Nc2ccc(Cl)c(C(F)(F)F)c2)n1 [Compound 60] | < 1
28 | CNCCNc1cc(C)nc(NC(=O)Nc2ccc(Cl)c(C(F)(F)F)c2)n1 [Compound 63, 1-(4-chloro-3-(trifluoromethyl)phenyl)-3-(4-methyl-6-((2-(methylamino)ethyl)amino)pyrimidin-2-yl)urea] | 1 to 10
29 | CNCCCNc1cc(C)nc(NC(=O)Nc2ccc(Cl)c(C(F)(F)F)c2)n1 [Compound 64] | < 1
30 | CNCCCCNc1cc(C)nc(NC(=O)Nc2ccc(Cl)c(C(F)(F)F)c2)n1 [Compound 65] | < 1
31 | Cc1cc(NCC2CCCNC2)nc(NC(=O)Nc2ccc(Cl)c(C(F)(F)F)c2)n1 (stereo not drawn) [Compound 66] | < 1
32 | Cc1cc(NC2CCNC2)nc(NC(=O)Nc2ccc(Cl)c(C(F)(F)F)c2)n1 (stereo not drawn) [Compound 67] | < 1

The next lines start with the values.

Row | IC50 [µM] | Compound
33 | < 1 | Cc1cc(NCCCO)nc(NC(=O)Nc2ccc(Cl)cc2)n1 [Compound 41, 3-{2-[3-(p-Chlorophenyl)ureido]-6-methyl-4-pyrimidinylamino}-propanol]
34 | < 1 | Cc1cc(NCCCO)nc(NC(=O)Nc2cccc(Cl)c2)n1 [Compound 43, 3-{2-[3-(m-chlorophenyl)ureido]-6-methyl-4-pyrimidinylamino}-propanol]
35 | < 1 | Cc1cc(NCCO)nc(NC(=O)Nc2ccc(Cl)c(C(F)(F)F)c2)n1 [Compound 49]
36 | < 1 | Cc1cc(NCCCCO)nc(NC(=O)Nc2ccc(Cl)c(C(F)(F)F)c2)n1 [Compound 50]
37 | < 1 | Cc1cc(NCC(O)CO)nc(NC(=O)Nc2ccc(Cl)c(C(F)(F)F)c2)n1 (stereo not drawn) [Compound 52]
38 | < 1 | Cc1cc(NCC(F)(F)CO)nc(NC(=O)Nc2ccc(Cl)c(C(F)(F)F)c2)n1 [Compound 53]
39 | < 1 | Cc1cc(NCCN)nc(NC(=O)Nc2ccc(Cl)c(C(F)(F)F)c2)n1 [Compound 55]
40 | 1 to 10 | Cc1cc(NCCc2ccccn2)nc(NC(=O)Nc2ccc(Cl)c(C(F)(F)F)c2)n1 [Compound 57]
41 | 1 to 10 | Cc1cc(NCCCN(C)C)nc(NC(=O)Nc2ccccc2)n1 [Compound 69, 1-(4-((3-(dimethylamino)propyl)amino)-6-methylpyrimidin-2-yl)-3-phenylurea]
42 | 1 to 10 | Cc1cc(NCCCO)nc(NC(=O)Nc2ccccc2)n1 [Compound 70, 1-(4-((3-hydroxypropyl)amino)-6-methylpyrimidin-2-yl)-3-phenylurea]
43 | 1 to 10 | Cc1cc(NCCO)nc(NC(=O)Nc2ccccc2)n1 [Compound 71]
44 | 1 to 10 | Cc1cc(NCCN)nc(NC(=O)Nc2ccccc2)n1 [Compound 72, 1-(4-((2-aminoethyl)amino)-6-methylpyrimidin-2-yl)-3-phenylurea]
45 | 1 to 10 | Cc1cc(NCCCCO)nc(NC(=O)Nc2ccccc2)n1 [Compound 73]
46 | 1 to 10 | Cc1cc(NCCN(C)C)nc(NC(=O)Nc2ccccc2)n1 [Compound 74]
47 | 1 to 10 | Cc1cc(NCCCN)nc(NC(=O)Nc2ccccc2)n1 [Compound 75]
48 | 1 to 10 | Cc1cc(NCCCCN(C)C)nc(NC(=O)Nc2ccccc2)n1 [Compound 76]
49 | 1 to 10 | Cc1cc(NCC(C)O)nc(NC(=O)Nc2ccccc2)n1 (stereo not drawn) [Compound 77]
50 | < 1 | Cc1cc(NCC(O)CO)nc(NC(=O)Nc2ccccc2)n1 (stereo not drawn) [Compound 78]
51 | 1 to 10 | Cc1cc(NCC(F)(F)CO)nc(NC(=O)Nc2ccccc2)n1 [Compound 79]
